Results published in US20180169095A1, “THE USE OF SGC STIMULATORS, SGC ACTIVATORS, ALONE AND COMBINATIONS WITH PDE5 INHIBITORS FOR THE TREATMENT OF DIGITAL ULCERS (DU) CONCOMITANT TO SYSTEMIC SCLEROSIS (SSC)” (Bayer Pharma Aktiengesellschaft, priority 2015, published 2018).
“Also recorded” adds a separate entry of the source.

System: Tsk-1 mice
Assay: Wound healing in Tsk-1 mice (tight-skin mouse model of SSc), 4 mm punch wounds
Format: in vivo
Details: for Healing time relative to healthy WT control mice (in words): TSK mice, no dose given; for Healing time relative to healthy WT control mice (in words) / Wound healing in tsk-1 mice versus placebo (in words): summary statement; for Reduction of wound size / Normalization of wound healing versus placebo-treated WT mice (68%±2%) / Wound healing in tsk-1 mice versus placebo (in words): tsk-1 mice; for Reduction of wound size / Normalization of wound healing versus placebo-treated WT mice (68%±2%): 3 days after punching; for Reduction of wound size: mean±SEM; for Normalization of wound healing versus placebo-treated WT mice (68%±2%): 45 ppm in mice chow; for Wound healing in tsk-1 mice versus placebo (in words): drug in food
Procedure: The tight-skin (Tsk-1) mouse model of SSc was used to evaluate the effects of compound according to formula (27) and (3) (BAY 41-2272 and BAY 63-2521) on wound healing in mice with substantial skin fibrosis. Due to an autosomal dominant mutation namely a tandem duplication of the fibrillin-1 gene, the phenotype of tsk-1 mice is characterized by an increased hypodermal thickness (Beyer et al. 2010). Genotyping of Tsk-1 mice was performed by PCR with the following primers: mutated fibrillin-1/tsk-1 forward primer: 5′-[…]-3′, reverse primer: 5′-[…]-3′.
The effects of either placebo (=vehicle for the compounds=0.5% tylose solution), or the compound according to formula (27) or (3), (BAY 41-2272 or BAY 63-2521) were studied in Tsk-1 mice. Tsk-1 mice were anaesthetized and carefully shaved 3 days before setting the wounds for exact quantification of the wound size. In order to avoid influences on wound healing by daily handling of the animals, the bi-daily gavage treatment was replaced by drug administration in the food. Mice received either normal mice chow (placebo) or mice chow, containing 15 and 45 ppm of compound according to formula (27), (BAY 41-2272) or containing 5 ppm, 15 ppm and 45 ppm of compound according to formula (3), (BAY 63-2521), respectively. […] Treatment groups consist of at least 8 tsk-1 mice per group. Treatment started on the day of shaving to achieve steady state exposure. Three days after shaving, mice were carefully anesthetized and round wounds were punched with 4 mm in diameter. 3 days after punching, mice were euthanized and the wound size was assessed. Statistical analysis of data was done by one-way ANOVA followed by Tuckey's multiple comparison post-hoc analysis

[1] = 15 ppm in mice chow (exposure similar to 1 mg/kg BID)
[2] = 45 ppm in mice chow (exposure similar to 3 mg/kg BID)

COC(=O)N(C)c1c(N)nc(-c2nn(Cc3ccccc3F)c3ncccc23)nc1N [(3)]
Healing time relative to healthy WT control mice (in words): normalized the healing time to healthy WT control mice
Reduction of wound size (5 ppm in mice chow (exposure similar to 0.3 mg/kg BID)): 59%±4%
Reduction of wound size [1]: 65±3%
Reduction of wound size [2]: 70%±2%
Normalization of wound healing versus placebo-treated WT mice (68%±2%): normalized wound healing to a similar extent as observed in placebo-treated WT mice
Wound healing in tsk-1 mice versus placebo (in words): significantly and dose-dependently accelerated wound healing; also recorded: dose-dependently and significantly accelerated wound healing; also recorded: significantly and dose-dependently improved

Nc1nc(-c2nn(Cc3ccccc3F)c3ncccc23)ncc1C1CC1 [(27)]
Healing time relative to healthy WT control mice (in words): normalized the healing time to healthy WT control mice
Reduction of wound size [1]: 64±2%
Reduction of wound size [2]: 73±2%
Normalization of wound healing versus placebo-treated WT mice (68%±2%): normalized wound healing to a similar extent as observed in placebo-treated WT mice
Wound healing in tsk-1 mice versus placebo (in words): significantly and dose-dependently accelerated wound healing; also recorded: significantly and dose-dependently improved
